Activity data for 1 molecule are collected here from ChEMBL document CHEMBL1150188, “Chemistry of Sponges, X. New Sesquiterpenes from a Marine Sponge of the Genus Eurypon” (J Nat Prod, 1990).

The experiment has as its system Escherichia coli. The experiment can be described thus: Antimicrobial activity against Escherichia coli at 100 ug/disk by standard disk assay. The class given is functional, organism-based.

Active and inactive are the calls of the source. The calls are words filed in the database; no cut-off is given here.

On to `CC1(C)C[C@@H]2C3=C[C@@H](O)C[C@](C)(CC[C@@H]21)C3`, for which the outcome was Active.
